Assay results from US10570179B2, “Substituted urea depsipeptide analogs as activators of the CLPP endopeptidase” (priority 2016, dated 2020).
In brackets after ≈: the same amount, converted by molar mass. Where two headings read alike, the source gives them in different places. Numbered stars: 1 amine (or outer) side, 2 acyl side, 3 side chain; on linkers, the order of the positions; unused ones are H or OH. Bridge positions count the residues as written; N and C are the ends. Square brackets hold non-standard residues; d marks the D form. Peptide text beside a SMILES is read from it. * marks the point of attachment. Phe(3,5-Me2) = Cc1cc(C)cc(C[C@H](N)C(=O)O)c1; Phe(3-Me) = Cc1cccc(C[C@H](N)C(=O)O)c1; NH(4-Cl-2-F-phenyl) = Fc1cc(Cl)ccc1N*; Pro(4R-Me) = C[C@H]1CN[C@H](C(=O)O)C1; Hyp = O=C(O)[C@@H]1C[C@@H](O)CN1; NH(4-Me-phenyl) = Cc1ccc(N*)cc1; aThr = C[C@H](O)[C@H](N)C(=O)O; Pip = O=C(O)[C@@H]1CCCCN1; 4Abz = Nc1ccc(C(=O)O)cc1; CO = O=C([*:1])[*:2]

Tests used:
Solubility determination = assay type: physicochemical; settings: for solubility kinetic at 10 min: 22 °C, aqueous buffer, kinetic from dmso stock
Procedure: Test compounds were synthesized and supplied by the Department of Chemical Biology and Therapeutics at St. Jude Children's Research Hospital (Memphis, Tenn.). LC-MS chromasolv grade acetonitrile (ACN) was purchased from Fisher Scientific (Loughborough, UK). LC-MS chromasolv grade formic acid was obtained from Sigma-Aldrich (St. Louis, Mo.). Milli-Q water as an ultrapure laboratory grade water was used in aqueous mobile phase.
Chromatographic separation was performed on an Acquity UPLC BEH C18 1.7 μm, 2.1×50 mm column (Waters Corporation, Milford, Mass.) using an Acquity ultra performance liquid chromatography system. The total flow rate was 0.9 mL/min. The sample injection volume was 10 μL. The UPLC column was maintained at 60° C. and the gradient program started at 90% A (0.1% formic acid in MilliQ H2O), changed to 70% A over 0.2 min, to 95% B (0.1% formic acid in ACN) over 1.4 minutes, held for 0.35 minutes, then to 90% A over 0.05 minutes.
Mass data was acquired with an Acquity SQD Mass Spectrometer. The mass spectrometer was operated in positive-ion mode with electrospray ionization. The conditions were as follows: capillary voltage 3.5 kV, cone voltage 30 V, source temperature 150° C., desolvation temperature 350° C., desolvation gas 500 L/hr, cone gas 25 L/hr. Data were acquired using Masslynx v. 4.1 and analyzed using the Quanlynx software suite. A full scan range from m/z=100-1000 in 0.2 s was used to acquire MS data. Both UV and Single ion recording mass spectrometry were used to determine the quantification of the samples.
Stock solutions were prepared by dissolving compounds into DMSO to yield a concentration of 10 mM. Stock solutions were stored at room temperature.
Calibration standards were made by adding stock solutions to DMSO for final concentrations of compounds at concentration of 100, 25, 6.25, 1.563, 0.391 and 0.098 μM.
Solubility test samples were made by adding stock solutions to 200 μL, of DPBS for final concentrations of compounds at 100 μM in a 96-well analytical plate (300 μL, maximum volume in each well). Samples were tested in triplicates. The plate was sealed, shaken at 600 rpm for 10 minutes, and then was centrifuged at 4000 rpm for 20 min at 22° C. 100 μL, of the supernatant was transferred to a new analytical 96-well plate and 10 μL, was injected onto the LCMS system.
Two calibration curves for solubility test samples were analyzed during the quantitation process. The linear regression of test compound peak areas was weighted by 1/x^2. […] Coefficient of determination (R^2) was used to evaluate the linearity of each calibration curve.

[1] = Plasma protein binding, rapid equilibrium dialysis; assay type: in vitro ADME, mouse
Procedure: This assay determines plasma protein binding of a drug/compound and free drug concentration in plasma using rapid equilibrium dialysis, which allow the aqueous component of plasma containing the free drug/compound through a dialysis membrane (MWCO˜8,000).
Solutions were prepared at 10 mM in DMSO. Dulbecco's phosphate buffered saline (DPBS; pH 7.4) was obtained from Invitrogen (Carlsbad, Calif.). Single-Use RED (rapid equilibrium dialysis) device was obtained from Thermo scientific (Rockford, Ill.). Human plasma was obtained from Innovative Research INC (Novi, Michigan, Ill).
Sample preparation for plasma protein binding was modified from Waters' method. (Waters et al. (2008) J. Pharm. Sci. 97(10): 4586-95). The Teflon base plate with the RED inserts (MWCO 8 K) were allowed to use without any pre-condition the membrane inserts. Human plasma was thawed and centrifuged at 1000 rpm for 2 min to remove any particulates. Each compound was prepared at 10 μM in human plasma. This was done by adding 1 μL, of drug solution (10 mM in DMSO) to 1000 μL, of human plasma (0.1% DMSO). Spiked plasma solutions (300 μL) were placed into the sample chamber (indicated by the red ring) and 500 μL, of DPBS into the adjacent chamber. The plate was sealed and incubated at 37° C. on an orbital shaker (100 rpm) for 4 hours. After incubation, the seal was removed from the RED plate and the volume of the insert confirmed—little to no volume change occurred. Aliquots (50 μL) were removed from each side of the insert and dispensed into a 96-well deep plate. An equal volume of blank plasma or DPBS was added to the required wells to create analytically identical sample matrices (matrix matching). To each sample 200 μL, of ACN containing 4 μg/mL warfarin IS was added. All of the plates were sealed and mixed well at 600 rpm for 10 min and were centrifuged at 4000 rpm for 20 min. The supernatants (120 μL) were transferred to analytical plates for analysis by LCMS. Conditions for Waters ACQUITY-UPLC-MS-UV system were described separately. The test compound concentrations were quantified in both buffer and plasma chambers via peak areas relative to the internal standard. The percentage of the test compound bound to plasma was calculated on following equations: % Free=(Concentration buffer chamber/concentration plasma chamber)×100% and % Bound=100%-% Free.

[2] = solubility in DPBS, 100 μM test samples, LCMS, read-out: LCMS
[3] = plasma binding, % Bound, mouse plasma

SMILES	solubility kinetic at 10 min (Solubility determination; [2]) [µM]	μsol (μM) (Solubility determination; solubility)	Mouse [1, 3] [%]	μsol (μg/mL) (Solubility determination; solubility) [µg/mL]	μsol (μM) (Solubility determination) [µM]	μsol (μg/mL) (Solubility determination) [µg/mL]	solubility kinetic at 10 min (Solubility determination) [µM]	Mouse ([1]; mouse, 4 h, 10 μM, pH 7.4) [%]
Cc1ccc(NC(=O)N[C@@H](Cc2cccc(C)c2)C(=O)N[C@H]2COC(=O)[C@@H]3C[C@H](C)CN3C(=O)[C@H](C)NC(=O)[C@@H]3CCCCN3C(=O)[C@@H]3CCCN3C2=O)cc1 (stereo in doubt) [Compound 43, (S)—N-((2S,6S,8AS,14AS,20S,23AS)-2,6-DIMETHYL-5,8,14,19,23-PENTAOXOOCTADECAHYDRO-1H,5H,14H,19H-PYRIDO[2,1-I]DIPYRROLO[2,1-C:2′,1′-L][1]OXA[4,7,10,13]TETRAAZACYCLOHEXADECIN-20-YL)-3-(M-TOLYL)-2-(3-(P-TOLYL)UREIDO)PROPANAMIDE]	42.2 ± 0.9 (≈ 32.6 µg/mL)	49.8 ± 2.5 µM	61.7 ± 1.6	–	–	–	–	–
Cc1ccc(NC(=O)N[C@@H](Cc2cccc(C)c2)C(=O)N[C@@H]2C(=O)N3CCC[C@H]3C(=O)N3CCCC[C@H]3C(=O)N[C@@H](C)C(=O)N3C[C@H](C)C[C@H]3C(=O)O[C@H]2C)cc1 [Compound 1, (S)-3-(M-TOLYL)-2-(3-(P-TOLYL)UREIDO)-N-((2R,6S,8AS,14AS,20S,21S,23AS)-2,6,21-TRIMETHYL-5,8,14,19,23-PENTAOXOOCTADECAHYDRO-1H,5H,14H,19H-PYRIDO[2,1-I]DIPYRROLO[2,1-C:2′,1′-L][1]OXA[4,7,10,13]TETRAAZACYCLOHEXADECIN-20-YL)PROPANAMIDE] ({NH(4-Me-phenyl)-CO}-[Phe(3-Me)][aThr]P[Pip]A[Pro(4R-Me)]; ester 2-C)	22.9 (≈ 18 µg/mL)	40.7 µM	98.9	32.0	–	–	–	–
Cc1ccc(NC(=O)N[C@@H](Cc2cc(C)cc(C)c2)C(=O)N[C@@H]2C(=O)N3CCC[C@H]3C(=O)N3CCCC[C@H]3C(=O)N[C@@H](C)C(=O)N3C[C@H](C)C[C@H]3C(=O)O[C@H]2C)cc1 [Compound 2, (S)-3-(3,5-DIMETHYLPHENYL)-2-(3-(P-TOLYL)UREIDO)-N-((2R,6S,8AS,14AS,20S,21S,23AS)-2,6,21-TRIMETHYL-5,8,14,19,23-PENTAOXOOCTADECAHYDRO-1H,5H,14H,19H-PYRIDO[2,1-I]DIPYRROLO[2,1-C:2′,1′-L][1]OXA[4,7,10,13]TETRAAZACYCLOHEXADECIN-20-YL)PROPANAMIDE] ({NH(4-Me-phenyl)-CO}-[Phe(3,5-Me2)][aThr]P[Pip]A[Pro(4R-Me)]; ester 2-C)	6.7 (≈ 5.36 µg/mL)	10.4 µM	99.2	8.3	–	–	–	–
Cc1cccc(C[C@H](NC(=O)Nc2ccc(Cl)cc2F)C(=O)N[C@@H]2C(=O)N3CCC[C@H]3C(=O)N3CCCC[C@H]3C(=O)N[C@@H](C)C(=O)N3C[C@H](C)C[C@H]3C(=O)O[C@H]2C)c1 [Compound 3, (S)-2-(3-(4-CHLORO-2-FLUOROPHENYL)UREIDO)-3-(M-TOLYL)-N-((2R,6S,8AS,14AS,20S,21S,23AS)-2,6,21-TRIMETHYL-5,8,14,19,23-PENTAOXOOCTADECAHYDRO-1H,5H,14H,19H-PYRIDO[2,1-I]DIPYRROLO[2,1-C:2′,1′-L][1]OXA[4,7,10,13]TETRAAZACYCLOHEXADECIN-20-YL)PROPANAMIDE] ({NH(4-Cl-2-F-phenyl)-CO}-[Phe(3-Me)][aThr]P[Pip]A[Pro(4R-Me)]; ester 2-C)	–	–	–	–	2.2 ± 0.1	1.8 ± 0.1	0.5 (≈ 0.412 µg/mL)	99.3 ± 0.1
CCOC(=O)c1ccc(NC(=O)N[C@@H](Cc2cccc(C)c2)C(=O)N[C@@H]2C(=O)N3C[C@H](O)C[C@H]3C(=O)N3CCCC[C@H]3C(=O)N[C@@H](C)C(=O)N3C[C@H](C)C[C@H]3C(=O)O[C@H]2C)cc1 [Compound 36, ETHYL 4-(3-((S)-1-(((2R,6S,8AS,14AS,16R,20S,21S,23AS)-16-HYDROXY-2,6,21-TRIMETHYL-5,8,14,19,23-PENTAOXOOCTADECAHYDRO-1H,5H,14H,19H-PYRIDO[2,1-I]DIPYRROLO[2,1-C:2′,1′-L][1]OXA[4,7,10,13]TETRAAZACYCLOHEXADECIN-20-YL)AMINO)-1-OXO-3-(M-TOLYL)PROPAN-2-YL)UREIDO)BENZOATE] ({OEt-4Abz-CO}-[Phe(3-Me)][aThr][Hyp][Pip]A[Pro(4R-Me)]; ester 2-C)	8.17 ± 0.167 (≈ 7.02 µg/mL)	6.4 ± .40 µM	–	–	–	–	–	–
